Experimental data reported in patent publication US20240360177A1, “PEPTIDES WITH ANTIMICROBIAL ACTIVITIES” (priority 2021, published 2024).
≈ marks a conversion by molar mass, not a printed value. Non-standard residues stand in square brackets, D forms with d. Residues, ends and D or L forms follow the SMILES beside them. Ava = NCCCCC(=O)O

Assays:
C. neoformans = conditions: 72 h
C. dubliniensis = conditions: 24 h
C. auris = conditions: 24 h
Scedosporium spp. = conditions: 72 h
C. gattii = conditions: 72 h
Fusarium spp. = conditions: 48 h
[1] = tested on: Staphylococcus aureus ATCC 29213; format: cell-based
in vitro = conditions: human, EC50 cytotoxicity in HepG2, intracellular ATP assay
C. krusei = conditions: 24 h
[2] = tested on: Pseudomonas aeruginosa ATCC 27853; format: cell-based
C. parapsilosis = conditions: 24 h
C. glabrata = conditions: 24 h
C. albicans = conditions: 24 h
[3] = tested on: Escherichia coli ATCC 25922; format: cell-based
C. tropicalis = conditions: 24 h

Structure (SMILES)	MIC Range Lomentospora prolificans (Lomentospora prolificans) [mg/L]	MIC C. neoformans (C. neoformans) [mg/L]	MIC C. dubliniensis (C. dubliniensis) [mg/L]	Activity at 24 h MIC50 against Candida spp. (Candida spp.) [mg/L]	Activity at 24 h MIC90 against Candida spp. (Candida spp.) [mg/L]	Activity at 48 h MIC50 against Candida spp. (Candida spp.) [mg/L]	Activity at 48 h MIC90 against Candida spp. (Candida spp.) [mg/L]	MIC C. auris (C. auris) [mg/L]	MIC Range Scedosporium spp. (Scedosporium spp.) [mg/L]	MIC C. gattii (C. gattii) [mg/L]	MIC Range Fusarium spp. (Fusarium spp.) [mg/L]	EC50 (in vitro) [mg/L]	MIC C. krusei (C. krusei) [mg/L]	MIC Range Filamentous Fungi (Filamentous Fungi) [mg/L]	MIC Range Cryptococcus spp. (Cryptococcus spp.) [mg/L]	MIC C. parapsilosis (C. parapsilosis) [mg/L]	MIC C. glabrata (C. glabrata) [mg/L]	MIC C. albicans (C. albicans) [mg/L]	MIC C. tropicalis (C. tropicalis) [mg/L]	further results
N=C(N)NCCC[C@@H](N)C(=O)N[C@@H](CCCNC(=N)N)C(=O)N[C@H](CCCNC(=N)N)C(=O)NCCCCC(=O)N[C@H](CCCNC(=N)N)C(=O)N[C@@H](CCCNC(=N)N)C(=O)N[C@H](CCCNC(=N)N)C(=O)NCCCCC(=O)N[C@H](CCCNC(=N)N)C(=O)N[C@@H](CCCNC(=N)N)C(=O)N[C@H](CCCNC(=N)N)C(=O)N[C@@H](CCCNC(=N)N)C(=O)NCCCCC(=O)N[C@H](CCCNC(=N)N)C(=O)N[C@@H](CCCNC(=N)N)C(=O)N[C@H](CCCNC(=N)N)C(=O)N[C@@H](CCCNC(=N)N)C(N)=O [SEQ ID NO: 18, rRr-(Ava)-rRr-(Ava)-rRrR-(Ava)-rRrR-NH2] (H-[dR]R[dR][Ava][dR]R[dR][Ava][dR]R[dR]R[Ava][dR]R[dR]R-NH2)	0.5 (≈ 0.2 µM)	0.25 (≈ 0.1 µM)	0.5 (≈ 0.2 µM)	0.5	1	0.5	2	0.25 (≈ 0.1 µM)	0.25 to 0.5	0.25 (≈ 0.1 µM)	0.25 to 0.5	> 300	0.5 (≈ 0.2 µM)	0.25 to 0.5	0.25 to 0.5	0.25 (≈ 0.1 µM)	0.5 (≈ 0.2 µM)	1 (≈ 0.4 µM)	0.5 (≈ 0.2 µM)	MIC Staphylococcus aureus [1]: 16 mg/L (≈ 6.4 µM); MIC Pseudomonas aeruginosa [2]: 64 mg/L (≈ 25.6 µM); MIC Escherichia coli [3]: 32 mg/L (≈ 12.8 µM)
N=C(N)NCCC[C@@H](N)C(=O)N[C@@H](CCCNC(=N)N)C(=O)N[C@H](CCCNC(=N)N)C(=O)NCCCCC(=O)N[C@H](CCCNC(=N)N)C(=O)N[C@@H](CCCNC(=N)N)C(=O)N[C@H](CCCNC(=N)N)C(=O)NCCCCC(=O)N[C@H](CCCNC(=N)N)C(=O)N[C@@H](CCCNC(=N)N)C(=O)N[C@H](CCCNC(=N)N)C(=O)NCCCCC(=O)N[C@H](CCCNC(=N)N)C(=O)N[C@@H](CCCNC(=N)N)C(=O)N[C@H](CCCNC(=N)N)C(N)=O [SEQ ID NO: 22, rRr-(Ava)-rRr-(Ava)-rRr-(Ava)-rRr-NH2] (H-[dR]R[dR][Ava][dR]R[dR][Ava][dR]R[dR][Ava][dR]R[dR]-NH2)	2 (≈ 0.914 µM)	1 (≈ 0.457 µM)	0.25 (≈ 0.114 µM)	1	8	2	32	2 (≈ 0.914 µM)	1 to 2	0.5 (≈ 0.228 µM)	0.5 to 16	–	1 (≈ 0.457 µM)	0.5 to 16	0.5 to 1	0.25 (≈ 0.114 µM)	0.5 (≈ 0.228 µM)	0.5 (≈ 0.228 µM)	0.5 (≈ 0.228 µM)	–
N=C(N)NCCC[C@@H](N)C(=O)N[C@@H](CCCNC(=N)N)C(=O)N[C@H](CCCNC(=N)N)C(=O)NCCCCC(=O)N[C@H](CCCNC(=N)N)C(=O)N[C@@H](CCCNC(=N)N)C(=O)NCCCCC(=O)N[C@H](CCCNC(=N)N)C(=O)N[C@@H](CCCNC(=N)N)C(=O)NCCCCC(=O)N[C@H](CCCNC(=N)N)C(=O)N[C@@H](CCCNC(=N)N)C(=O)N[C@H](CCCNC(=N)N)C(N)=O [SEQ ID NO: 28, rRr-(Ava)-rR-(Ava)-rR-(Ava)-rRr-NH2] (H-[dR]R[dR][Ava][dR]R[Ava][dR]R[Ava][dR]R[dR]-NH2)	32 (≈ 17.1 µM)	8 (≈ 4.26 µM)	1 (≈ 0.533 µM)	8	>32	8	>32	>32	4 (≈ 2.13 µM)	4 (≈ 2.13 µM)	–	–	8 (≈ 4.26 µM)	–	2 to 8	0.5 (≈ 0.266 µM)	4 (≈ 2.13 µM)	2 (≈ 1.07 µM)	1 (≈ 0.533 µM)	–
N=C(N)NCCC[C@@H](N)C(=O)N[C@@H](CCCNC(=N)N)C(=O)N[C@H](CCCNC(=N)N)C(=O)N1CCC[C@H]1C(=O)N[C@H](CCCNC(=N)N)C(=O)N[C@@H](CCCNC(=N)N)C(=O)N[C@H](CCCNC(=N)N)C(=O)N1CCC[C@H]1C(=O)N[C@H](CCCNC(=N)N)C(=O)N[C@@H](CCCNC(=N)N)C(=O)N[C@H](CCCNC(=N)N)C(=O)N1CCC[C@H]1C(=O)N[C@H](CCCNC(=N)N)C(=O)N[C@@H](CCCNC(=N)N)C(=O)N[C@H](CCCNC(=N)N)C(N)=O [SEQ ID NO: 66, rRr-P-rRr-P-rRr-P-rRr-NH2] (H-[dR]R[dR]P[dR]R[dR]P[dR]R[dR]P[dR]R[dR]-NH2)	2 (≈ 0.916 µM)	0.5 (≈ 0.229 µM)	0.25 (≈ 0.115 µM)	0.5	8	0.5	16	8 (≈ 3.67 µM)	0.5 to 2	1 (≈ 0.458 µM)	0.12 to 8	> 300	0.5 (≈ 0.229 µM)	0.12 to 8	0.5 to 1	0.25 (≈ 0.115 µM)	0.5 (≈ 0.229 µM)	0.25 (≈ 0.115 µM)	0.25 (≈ 0.115 µM)	–
N=C(N)NCCC[C@@H](N)C(=O)N[C@@H](CCCNC(=N)N)C(=O)N[C@H](CCCNC(=N)N)C(=O)N1CCC[C@H]1C(=O)N[C@H](CCCNC(=N)N)C(=O)N[C@@H](CCCNC(=N)N)C(=O)N1CCC[C@H]1C(=O)N[C@H](CCCNC(=N)N)C(=O)N[C@@H](CCCNC(=N)N)C(=O)N1CCC[C@H]1C(=O)N[C@H](CCCNC(=N)N)C(=O)N[C@@H](CCCNC(=N)N)C(=O)N[C@H](CCCNC(=N)N)C(N)=O [SEQ ID NO: 70, rRr-P-rR-P-rR-P-rRr-NH2] (H-[dR]R[dR]P[dR]RP[dR]RP[dR]R[dR]-NH2)	32 (≈ 17.1 µM)	8 (≈ 4.28 µM)	1 (≈ 0.535 µM)	4	>32	8	>32	>32	8 (≈ 4.28 µM)	4 (≈ 2.14 µM)	–	–	2 (≈ 1.07 µM)	–	1 to 8	2 (≈ 1.07 µM)	4 (≈ 2.14 µM)	0.5 (≈ 0.267 µM)	1 (≈ 0.535 µM)	–
